Literature values, collected in US12042505B2, “Compositions and methods for treating dry eye” (priority 2021, dated 2024).

Conditions: for side effects: background statement on marketed drug

Structure (SMILES)	hydrolysis by cholinesterase (background statement)	side effects	absorption in the gastrointestinal tract (background statement)
CC(C[N+](C)(C)C)OC(N)=O (stereo not shown) [Bethanechol]	not hydrolyzed by cholinesterase	dizziness, drowsiness, lightheadedness, headache, nausea, vomiting, abdominal cramps/pain, diarrhea, increased salivation or urination, headache, slow heart rate followed by fast heart rate, and sweating	–
C[N+](C)(C)CCOC(N)=O [Carbachol]	–	miosis that can diminish ocular focus	not well absorbed in the gastrointestinal tract
CC1OC2(CS1)CN1CCC2CC1 (stereo not shown) [Cevimeline]	–	bladder pain, nausea, vomiting, diarrhea, sweating, rash, headache, runny nose, drowsiness, hot flashes, blurred vision, difficulty sleeping	–
CN(C)C(=O)Oc1ccc[n+](C)c1 [Pyridostigmine]	–	dizziness, drowsiness, lightheadedness, headache, nausea, vomiting, abdominal cramps/pain, diarrhea, increased salivation or urination, headache, slow heart rate followed by fast heart rate, and sweating	–
CC[C@@H]1C(=O)OC[C@@H]1Cc1cncn1C [Pilocarpine]	–	miosis, blurred vision, pupillary spasms; topically, it also results in burning and stinging	–
